From US10399959B2, “Acid-addition salt of Trk-inhibiting compound” (ONO PHARMACEUTICAL CO., LTD., priority 2014, dated 2019)
Read-outs that look alike come from different tables or passages of the source.

Assays:
[1] = tested on: sodium monoiodoacetate-induced model rats; assay: Analgesic effect on sodium monoiodoacetate-induced model rats; type: in vivo, rat; conditions: MIA rats, day 24
[2] = tested on: rat NGF-induced vascular hyper permeability; assay: Inhibiting effect of rat NGF-induced vascular hyper permeability; type: in vivo; conditions: 1 mg/kg oral (as free base)
Procedure: TrkA-inhibiting activity of the present compound was evaluated in vivo. The present compound dissolved in a medium was orally administered (adminstered volume: 5 mL/kg) to male CD(SD)IGS rats (7- to 9-week old, Charles River Laboratories Japan, Inc.) shaved on the back. A medium was orally administered (adminstered volume: 5 mL/kg) to the control and normal groups. After 12 or 14 hours of administration, 3 μg/mL of an NGF (Mouse 2.5s, Natural, Invitrogen) solution prepared in 0.1% BSA (Sigma-Aldrich)-containing saline was intracutaneously administered (adminstered volume; 50 μL/site) at 3 sites on the back of animals under halothane anesthesia. For the normal group, 0.1% BSA-containing saline was intracutaneously administered (adminstered volume; 50 μL/site) at 3 sites on the back. Immediately after intracutaneous administration, 1% Evans Blue (Tokyo Chemical Industriy Co., Ltd.) dissolved in saline was administered intravenously from tail (adminstered volume: 3 mL/kg). After 10 minutes of administration, the animals were sacrificed by bleeding due to incision of the abdominal aorta. The sites of intracutaneous administration on the back (3 sites) were excised, and the skin samples were respectively transferred to the wells in a 48-well plate (Asahi Glass Co., Ltd.). […] The formamide extraction solution (200 μL) was transferred to a 96-well plate, and the absorbance (wavelength: 620 nm) of Evans Blue extracted in formamide was measured on an absorbance microplate reader (SpectraMAX 190, Molecular Devices Japan, K.K.). Standard samples of Evans Blue dissolved in formamide (0, 0.78, 1.56, 3.13, 6.25, 12.5, 25, and 50 μg/mL) were measured at the same time for the absorbance (wavelength: 620 nm), thereby preparing a calibration curve. Based on the calibration curve and the absorbances of the respective samples, the concentrations of Evans Blue in each sample was calculated. […] The rate of inhibition for rat NGF-induced vascular hyper permeability of the present compound was calculated according to the following Equation 4. […]

[3] = Test regarding solubility in artificial intestinal juice (FaSSIF); type: physicochemical; conditions: after lapsing 0.25 hours; for solubility at 0.25 h / solubility: artificial intestinal juice (FaSSIF); for solubility at 0.25 h: 37 °C, fassif, thermodynamic from solid; for solubility / solubility per free base: 37° C.
Procedure: About 5 mg of the present compound was weighed in a test tube, a stirrer and 5 mL of an artificial intestinal juice (FaSSIF; Reference 1: Pharmaceutical Research, Vol. 20, pp. 1674-1680, 2003, and Reference 2: Biological & Pharmaceutical Bulletin, Vol. 34, pp. 401-407, 2011) were added in the test tube, and the test tube was then hermetically sealed. The test tube was placed in a solubility test apparatus (Gilson, Quad-Z 215), and stirring was performed at 37° C. and 700 rpm. A part of the liquid in the test tube was collected after lapsing 0.25, 0.5, 1, 3, 6, and 24 hours, respectively. The collected liquid was filtered with a filter, and the filtrate was diluted to 2-fold with acetonitrile. The diluted liquid was centrifuged at 3,000 rpm for 5 minutes. A supernatant after centrifugation was used as a sample solution and calculated for solubility by means of high-performance liquid chromatography.
High-Performance Liquid Chromatography Measurement Conditions

[4] = present compound oral twice a day over 10 days, then 3 hours before measurement, dose (0.1, 0.3 or 1 mg/kg) not given
[5] = 14 hours before administration of NGF
[6] = FaSSIF, salt value converted to the corresponding free base, read-out: solubility per free base
[7] = FaSSIF, salt value converted to the corresponding free base, Methanesulfonate
[8] = as the substance itself (salt or free base), Methanesulfonate

CS(=O)(=O)c1ccc(C(F)(F)F)cc1NC(=O)Nc1cnc(Oc2ccc(-c3cc(Cl)cnc3N)cc2)nc1.Cl [hydrochloride of Compound (I), 1-{2-[4-(2-amino-5-chloro-3-pyridinyl)phenoxy]-5-pyrimidinyl}-3-[2-(methylsulfonyl)-5-(trifluoromethyl)phenyl]urea Hydrochloride]
percent improvement (right hind limb weight load ratio) [1, 4]: about 54%
inhibition rate of rat NGF-induced vascular hyper permeability [2, 5]: about 100%

Nc1ncc(Cl)cc1-c1ccc(Oc2ncc(NC(=O)Nc3cc(C(F)(F)F)ccc3-n3cccn3)cn2)cc1 [p-toluenesulfonate of Compound (III), 1-(2-(1H-pyrazol-1-yl)-5-(trifluoromethyl)phenyl)-3-(2-(4-(2-amino-5-chloropyridin-3-yl)phenoxy)pyrimidin-5-yl)urea p-Toluenesulfonate]
solubility at 0.25 h [3, 6]: 42 µg/mL
solubility at 0.25 h ([3]; as the substance itself (salt or free base), read-out: solubility): 55 µg/mL

COc1cccc(C2(O)CCCCC2CN(C)C)c1 (stereo not drawn) [tramadol, reference compound]
percent improvement (right hind limb weight load ratio) ([1]; tramadol 10 mg/kg subcutaneous one hour before measurement): 43%

CS(=O)(=O)c1ccc(C(F)(F)F)cc1NC(=O)Nc1cnc(Oc2ccc(-c3cc(Cl)cnc3N)cc2)nc1 [Compound (I), 1-{2-[4-(2-amino-5-chloro-3-pyridinyl)phenoxy]-5-pyrimidinyl}-3-[2-(methylsulfonyl)-5-(trifluoromethyl)phenyl]urea]
solubility ([3]; as the substance itself (salt or free base)): 7 µg/mL

Nc1ncc(Cl)cc1-c1ccc(Oc2ncc(NC(=O)Nc3cc(C(F)(F)F)ccc3-n3cccn3)cn2)cc1 [methanesulfonate of Compound (III), 1-(2-(1H-pyrazol-1-yl)-5-(trifluoromethyl)phenyl)-3-(2-(4-(2-amino-5-chloropyridin-3-yl)phenoxy)pyrimidin-5-yl)urea Methanesulfonate]
solubility per free base [3, 7]: 45 µg/mL
solubility [3, 8]: 53 µg/mL
percent improvement (right hind limb weight load ratio) [1, 4]: about 61%
inhibition rate of rat NGF-induced vascular hyper permeability [2, 5]: about 97%

CN1CC[C@]23c4c5ccc(O)c4O[C@H]2[C@@H](O)C=C[C@H]3[C@H]1C5 [morphine, reference compound]
percent improvement (right hind limb weight load ratio) ([1]; morphine 3 mg/kg subcutaneous one hour before measurement): 54%

CS(=O)(=O)c1ccc(C(F)(F)F)cc1NC(=O)Nc1cnc(Oc2ccc(-c3cc(Cl)cnc3N)cc2)nc1 [methanesulfonate of Compound (I), 1-{2-[4-(2-amino-5-chloro-3-pyridinyl)phenoxy]-5-pyrimidinyl}-3-[2-(methylsulfonyl)-5-(trifluoromethyl)phenyl]urea Methanesulfonate]
solubility per free base [3, 7]: 47 µg/mL
solubility [3, 8]: 55 µg/mL

Nc1ncc(F)cc1-c1ccc(Oc2ncc(NC(=O)Nc3cc(C(F)(F)F)ccc3-c3cccnc3)cn2)cc1 [dibenzenesulfonate of Compound (II), 1-{2-[4-(2-amino-5-fluoropyridin-3-yl)phenoxy]pyrimidin-5-yl}-3-[2-(pyridin-3-yl)-5-(trifluoromethyl)phenyl]urea dibenzenesulfonate]
solubility per free base ([3]; FaSSIF, salt value converted to the corresponding free base, dibenzenesulfonate): 52 µg/mL
solubility ([3]; as the substance itself (salt or free base), dibenzenesulfonate): 81 µg/mL

Nc1ncc(F)cc1-c1ccc(Oc2ncc(NC(=O)Nc3cc(C(F)(F)F)ccc3-c3cccnc3)cn2)cc1 [di(p-toluenesulfonate) of Compound (II), 1-{2-[4-(2-amino-5-fluoropyridin-3-yl)phenoxy]pyrimidin-5-yl}-3-[2-(pyridin-3-yl)-5-(trifluoromethyl)phenyl]urea di(p-toluenesulfonate)]
solubility ([3]; as the substance itself (salt or free base), di(p-toluenesulfonate)): 99 µg/mL
solubility at 0.25 h [3, 6]: 61 µg/mL
percent improvement (right hind limb weight load ratio) [1, 4]: about 53%
inhibition rate of rat NGF-induced vascular hyper permeability ([2]; 12 hours before administration of NGF): about 78%

CS(=O)(=O)c1ccc(C(F)(F)F)cc1NC(=O)Nc1cnc(Oc2ccc(-c3cc(Cl)cnc3N)cc2)nc1 [p-toluenesulfonate of Compound (I), 1-{2-[4-(2-amino-5-chloro-3-pyridinyl)phenoxy]-5-pyrimidinyl}-3-[2-(methylsulfonyl)-5-(trifluoromethyl)phenyl]urea p-toluenesulfonate]
solubility ([3]; as the substance itself (salt or free base), p-toluenesulfonate): 96 µg/mL
solubility at 0.25 h [3, 6]: 74 µg/mL
